Source: patent publication US20250186410A1, “DUAL INHIBITORS OF TRYPTOPHAN DIOXYGENASES (IDO1 AND TDO) AND THEIR USE IN THERAPY” (ANTIDO THERAPEUTICS INTERNATIONAL SÀRL, priority 2022, published 2025)

Assays:
[1] = Body weight and clinical observations, Pan02 syngeneic model; type: in vivo, mouse; conditions: for Body weight, Mean: oxaliplatin 6 mg/kg i.p. BIW, AT-0174 120 mg/kg p.o. QD Day 7-32
Method: (§1) Female C57BL/6 mice were used in the study, with ad libitum access to rodent food and water throughout the study period.
(§2) Murine pancreatic Pan02 cancer cells were cultured in a 37° C. incubator containing 5% CO2 with 10% FBS in DMEM medium. The cells were sub-cultured within 10 passages before inoculated into the mice. 1*10^6 PANC02 cells in 100 μL serum-free medium mixed with Matrigel (v/v 1:1) were subcutaneously inoculated at the right flank of each mouse under anesthetized with 2-5% isoflurane before inoculation.
Body weight: Mice body weights were measured and recorded three times per week after grouping. Animals were also weighed in the event of accidental death or near-death euthanasia.

Pan02 tumors = experiment: Tumor volume, mouse subcutaneous Pan02 syngeneic model of pancreatic cancer; type: in vivo; conditions: for tumor volume, Mean: oxaliplatin 6 mg/kg i.p. BIW, AT-0174 120 mg/kg p.o. QD Day 7-32
Method: as §1, §2
Tumor volume: The tumor volume (V) was calculated as follows: V=(length×width^2)/2. Tumor volume was measured and recorded three times per week after grouping.
The individual relative tumor volume (RTV) was calculated as follows: RTV=Vt/V0, where Vt is the volume on each day, and V0 is the volume at the beginning of the treatment.

[2] = test system: immune cells in Pan02 tumors; experiment: FACS analysis of Pan02 tumors; type: in vivo, mouse; conditions: Day 34, oxaliplatin 6 mg/kg i.p. BIW, AT-0174 120 mg/kg p.o. QD
Method: On Day 34, all tumor-bearing mice were sacrificed, and tumors were collected for FACS analysis. FACS panels were:
Panel A: L/D, CD45, CD3, CD4, CD8, CD11b, CD25, IFN-γ, Foxp3.
Panel B: L/D, CD45, CD3, CD11b, NKG2D, F4/80.
Flow cytometry was conducted using a Beckman Cytoflex LX and antibodies from Thermofisher and Biolegend, using standard methods.

[3] = test system: LLC (mouse Lewis lung cancer cells); experiment: Growth inhibition of parental LLC cells; type: cell-based; conditions: 24 h
Method: Cisplatin resistant mouse cell lines (LLC-CR) were derived from LLC (mouse Lewis lung cancer cells (epidermoid carcinoma), ATCC) through treatment with increasing doses of cisplatin intermittently. LLC-CR clones were maintained in half GI50 dosage concentration. […] The cultures were observed daily and allowed to grow until they reached an initial cell density. […] After the cells recovered from cisplatin toxicity, they were treated again with increasing dosage of cisplatin for 24 h. These cells are seeded at 500-1000 cells per dish and cultured for 5-7 days. Clones are selected and expanded as well as tested for cisplatin sensitivity. Similar processes of exposure are carried out for a third and fourth time to generate higher resistant clones. At the end, the resistance clones (LLC-CR) were maintained in media completed with 1 μg/ml (half GI50 dosage) of cisplatin.

LLC-CR cells = conditions: cited from earlier work

## O=C1[O][Pt]2([NH][C@@H]3CCCC[C@H]3[NH]2)[O]C1=O [Oxaliplatin]
[1]; Pan02, day 4
  Body weight, Mean: 21.21 g
[1]; Pan02, day 11
  Body weight, Mean: 21.10 g
[1]; Pan02, day 25
  Body weight, Mean: 23.00 g
[1]; Pan02, day 28
  Body weight, Mean: 22.00 g
[1]; Pan02, day 32
  Body weight, Mean: 22.65 g
[1]; Pan02, day 34
  Body weight, Mean: 23.31 g
[1]; Pan02 model
  body weight loss / tolerability: Slight body weight loss
Pan02 tumors; Pan02, day 0
  tumor volume, Mean: 63.84 mm^3
Pan02 tumors; Pan02, day 4
  tumor volume, Mean: 80.36 mm^3
Pan02 tumors; Pan02, day 7
  tumor volume, Mean: 108.77 mm^3
Pan02 tumors; Pan02, day 11
  tumor volume, Mean: 152.24 mm^3
Pan02 tumors; Pan02, day 14
  tumor volume, Mean: 250.08 mm^3
Pan02 tumors; Pan02, day 18
  tumor volume, Mean: 410.18 mm^3
Pan02 tumors; Pan02, day 21
  tumor volume, Mean: 601.42 mm^3
Pan02 tumors; Pan02, day 25
  tumor volume, Mean: 735.54 mm^3
Pan02 tumors; Pan02, day 28
  tumor volume, Mean: 912.95 mm^3
Pan02 tumors; Pan02, day 32
  tumor volume, Mean: 1316.29 mm^3
Pan02 tumors; Pan02, day 34
  tumor volume, Mean: 1507.92 mm^3
Pan02 tumors; Pan02 model, compared with the vehicle group
  anti-tumor response: little anti-tumor response
[2]
  CD4+ Tregs: 25.40%
  CD8+ CD3+ Tcells: 31.62%

## N.N.[Cl][Pt][Cl] [cisplatin]
[3]
  50% growth inhibition (GI50) concentration: 0.4 µg/mL
LLC-CR cells; LLC-CR cells
  GI50 concentration in resistant clones: ~2 µg/mL
LLC-CR cells; LLC-CR versus parental LLC
  fold resistance of LLC-CR: 3-5 fold
